Experimental data from patent US20210355104A1, “ADENOSINE RECEPTOR BINDING COMPOUNDS” (Nikang Therapeuticsm Inc., priority 2018, published 2021).
Where “and” joins values, the source holds several entries; their conditions need not be identical. Identical values can stand only once.

Columns and labels:
Adenosine A2A receptor [1] = target: T1, Adenosine A2A receptor (Homo sapiens, UniProt P29274); experiment: Adenosine A2A receptor competitive binding assay (Tag-lite HTRF); conditions: Tag-lite adenosine A2A receptor ligand binding, 2 h room temperature; values separated by / are repeat determinations
Summary of the method: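 Tag-lite HTRF competition: donor-labelled cells expressing human A2A were mixed with serially diluted compounds (DMSO 0.6% in dilutions) and red fluorescent A2A antagonist ligand (60 nM stock). Incubated 2 h at room temperature before HTRF readout.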

Adenosine A2A receptor [2] = target: T1, Adenosine A2A receptor; experiment: cAMP assay in 293A cells stably expressing the adenosine A2A receptor (CGS21680 stimulation, HTRF); type: cell-based; set-up: expressed in transfected cells; host or cells: 293A cells (Invitrogen, Cat# R705-07) infected with A2A-expressing lentivirus (custom packaged by Biosettia), puromycin selected; conditions: 293A-A2AR cells, 0.1% BSA, values separated by / are repeat determinations
[3] = 8 nM CGS, read-out: cAMP (nM) 0.1% BSA, 8 nM CGS
[4] = 1 uM CGS, read-out: cAMP (nM) 0.1% BSA, 1 uM CGS

T1 sequence (P29274 whole entry): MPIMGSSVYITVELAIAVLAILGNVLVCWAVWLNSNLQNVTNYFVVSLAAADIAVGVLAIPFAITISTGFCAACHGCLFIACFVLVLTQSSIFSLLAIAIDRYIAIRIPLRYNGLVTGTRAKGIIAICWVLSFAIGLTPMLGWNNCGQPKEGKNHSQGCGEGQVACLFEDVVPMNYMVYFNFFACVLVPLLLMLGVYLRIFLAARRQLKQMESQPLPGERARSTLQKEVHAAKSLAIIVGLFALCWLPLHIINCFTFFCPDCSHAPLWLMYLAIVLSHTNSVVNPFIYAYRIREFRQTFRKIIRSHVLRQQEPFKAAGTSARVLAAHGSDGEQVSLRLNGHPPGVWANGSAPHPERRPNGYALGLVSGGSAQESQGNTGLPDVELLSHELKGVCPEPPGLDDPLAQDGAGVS

| SMILES | IC50 (Adenosine A2A receptor [1]) | IC50 (Adenosine A2A receptor [2]; [3]) | IC50 (Adenosine A2A receptor [2]; [4]) [nM] |
| --- | --- | --- | --- |
| Cc1cc(-c2c(OCCNS(N)(=O)=O)nc(N)nc2-c2ccccc2)cc(C(F)(F)F)n1 [Example 112] | 6.7 nM | 3.1 nM |  |
| Cc1cc(-c2c(OCC3COCCO3)nc(N)nc2-c2ccc(F)cc2)cc(C(F)F)n1 (stereo not drawn) [Example 114] | 7.7 nM | 6.2 nM and 4.2 nM |  |
| CCN(C(=O)COc1nc(N)nc(-c2ccc(F)cc2)c1-c1cc(C)nc(C(F)F)c1)c1ccccn1 [Example 117, 2-((2-amino-5-(2-(difluoromethyl)-6-methylpyridin-4-yl)-6-(4-fluorophenyl)pyrimidin-4-yl)oxy)-N-ethyl-N-(pyridin-2-yl)acetamide] | 39.4 nM | 27 nM |  |
| COC(=O)NCCOc1nc(N)nc(-c2ccccc2)c1-c1cc(C)nc(C(F)(F)F)c1 [Example 119, methyl(2-((2-amino-5-(2-methyl-6-(trifluoromethyl)pyridin-4-yl)-6-phenylpyrimidin-4-yl)oxy)ethyl)carbamate] | 16.8 nM | 5.8 nM and 5.4 nM |  |
| CNC(=O)NCCOc1nc(N)nc(-c2ccccc2)c1-c1cc(C)nc(C(F)(F)F)c1 [Example 120, 1-(2-((2-amino-5-(2-methyl-6-(trifluoromethyl)pyridin-4-yl)-6-phenylpyrimidin-4-yl)oxy)ethyl)-3-methylurea] | 8.8 nM | 13 nM and 8.2 nM |  |
| Cc1cc(-c2c(OCC3(CO)CCOCC3)nc(N)nc2-c2ccc(F)cc2)cc(C(F)F)n1 [Example 125, (4-(((2-amino-5-(2-(difluoromethyl)-6-methylpyridin-4-yl)-6-(4-fluorophenyl)pyrimidin-4-yl)oxy)methyl)tetrahydro-2H-pyran-4-yl)methanol] | 18.1 nM | 8.7 nM | 1890 |
| CNC(=O)OCCOc1nc(N)nc(-c2ccccc2)c1-c1cc(C)nc(C(F)(F)F)c1 [Example 144, 2-((2-amino-5-(2-methyl-6-(trifluoromethyl)pyridin-4-yl)-6-phenylpyrimidin-4-yl)oxy)ethyl methylcarbamate] | 4.5 nM | 4.2 nM |  |
| CCN(CCOc1nc(N)nc(-c2ccc(F)cc2)c1-c1cc(C)nc(C(F)F)c1)c1ncccn1 [Example 146, 5-(2-(difluoromethyl)-6-methylpyridin-4-yl)-4-(2-(ethyl(pyrimidin-2-yl)amino)ethoxy)-6-(4-fluorophenyl)pyrimidin-2-amine] | 4 nM | 5.6 nM |  |
| Cc1cc(-c2c(OCCN(C)c3cccnn3)nc(N)nc2-c2ccc(F)cc2)cc(C(F)F)n1 [Example 150, N-(2-((2-amino-5-(2-(difluoromethyl)-6-methylpyridin-4-yl)-6-(4-fluorophenyl)pyrimidin-4-yl)oxy)ethyl)-N-methylpyridazin-3-amine] | 2.7 nM and 3.2 nM |  | 98 |
| Cc1cc(-c2c(OCCN(C)c3cnccn3)nc(N)nc2-c2ccc(F)cc2)cc(C(F)F)n1 [Example 152, 5-(2-(difluoromethyl)-6-methylpyridin-4-yl)-4-(4-fluorophenyl)-6-(2-(methyl(pyrazin-2-yl)amino)ethoxy)pyrimidin-2-amine] | 5.1 nM |  | 351 |
| Cc1cc(-c2c(OCCN(CCO)c3ccccn3)nc(N)nc2-c2ccc(F)cc2)cc(C(F)F)n1 [Example 153, 2-((2-((2-amino-5-(2-(difluoromethyl)-6-methylpyridin-4-yl)-6-(4-fluorophenyl)pyrimidin-4-yl)oxy)ethyl)(pyridin-2-yl)amino)ethan-1-ol] | 8.9 nM | 4.1 nM |  |
| Cc1cc(-c2c(OCCN(C)c3cc(OCCO)ccn3)nc(N)nc2-c2ccc(F)cc2)cc(C(F)F)n1 [Example 155, 2-((2-((2-((2-amino-5-(2-(difluoromethyl)-6-methylpyridin-4-yl)-6-(4-fluorophenyl)pyrimidin-4-yl)oxy)ethyl)(methyl)amino)pyridin-4-yl)oxy)ethan-1-ol] | 24 nM | 5.4 nM |  |
| Cc1cc(-c2c(OCCN(C)c3ccc(C#N)cn3)nc(N)nc2-c2ccc(F)cc2)cc(C(F)F)n1 [Example 156, 6-((2-((2-amino-5-(2-(difluoromethyl)-6-methylpyridin-4-yl)-6-(4-fluorophenyl)pyrimidin-4-yl)oxy)ethyl)(methyl)amino)nicotinonitrile] | 84 nM | 57 nM |  |
| Cc1cc(-c2c(OCCN(C)c3ccc(S(C)(=O)=O)cn3)nc(N)nc2-c2ccc(F)cc2)cc(C(F)F)n1 [Example 157, 5-(2-(difluoromethyl)-6-methylpyridin-4-yl)-4-(4-fluorophenyl)-6-(2-(methyl(5-(methylsulfonyl)pyridin-2-yl)amino)ethoxy)pyrimidin-2-amine] | 79 nM | 52 nM |  |

Results, then the compound that gave them:

| IC50 (Adenosine A2A receptor [1]) | IC50 (Adenosine A2A receptor [2]; [3]) | IC50 (Adenosine A2A receptor [2]; [4]) [nM] | SMILES |
| --- | --- | --- | --- |
| 47 nM | 11 nM |  | COC(=O)NCc1nc(N)nc(-c2ccc(F)cc2)c1-c1cc(C)nc(C(F)F)c1 [Example 103, methyl((2-amino-5-(2-(difluoromethyl)-6-methylpyridin-4-yl)-6-(4-fluorophenyl)pyrimidin-4-yl)methyl)carbamate] |
| 0.17 nM and 1 nM | 0.44 nM and 0.38 nM | 10 | CCn1ccnc1COc1nc(N)nc(-c2ccc(F)cc2)c1-c1cc(C)nc(C(F)F)c1 [Example 105, 5-(2-(difluoromethyl)-6-methylpyridin-4-yl)-4-((1-ethyl-1H-imidazol-2-yl)methoxy)-6-(4-fluorophenyl)pyrimidin-2-amine] |
| 38 nM | 43 nM |  | COC(=O)N1CCC(COc2nc(N)nc(-c3ccc(F)cc3)c2-c2cc(C)nc(C(F)F)c2)CC1 [Example 106, methyl 4-(((2-amino-5-(2-(difluoromethyl)-6-methylpyridin-4-yl)-6-(4-fluorophenyl)pyrimidin-4-yl)oxy)methyl)piperidine-1-carboxylate] |
| 8.9 nM | 16 nM and 7.5 nM |  | CNC(=O)NCCOc1nc(N)nc(-c2ccc(F)cc2)c1-c1cc(C)nc(C(F)F)c1 [Example 113, 1-(2-((2-amino-5-(2-(difluoromethyl)-6-methylpyridin-4-yl)-6-(4-fluorophenyl)pyrimidin-4-yl)oxy)ethyl)-3-methylurea] |
| 19 nM | 9.9 nM | 820 | CNS(=O)(=O)NCCOc1nc(N)nc(-c2ccc(F)cc2)c1-c1cc(C)nc(C(F)F)c1 [Example 115] |
| 7.3 nM | 4.7 nM and 3.2 nM |  | COC(=O)NCCOc1nc(N)nc(-c2ccc(F)cc2)c1-c1cc(C)nc(C(F)F)c1 [Example 116, methyl(2-((2-amino-5-(2-(difluoromethyl)-6-methylpyridin-4-yl)-6-(4-fluorophenyl)pyrimidin-4-yl)oxy)ethyl)carbamate] |
| 28.7 nM | 18 nM |  | CCN(C(=O)COc1nc(N)nc(-c2ccc(F)cc2)c1-c1cc(C)nc(C(F)F)c1)C1COC1 [Example 118, 2-((2-amino-5-(2-(difluoromethyl)-6-methylpyridin-4-yl)-6-(4-fluorophenyl)pyrimidin-4-yl)oxy)-N-ethyl-N-(oxetan-3-yl)acetamide] |
| 1.2 nM | 0.87 nM and 0.67 nM |  | CCNC(=O)N(CC)CCOc1nc(N)nc(-c2ccc(F)cc2)c1-c1cc(C)nc(C(F)F)c1 [Example 123, 1-(2-((2-amino-5-(2-(difluoromethyl)-6-methylpyridin-4-yl)-6-(4-fluorophenyl)pyrimidin-4-yl)oxy)ethyl)-1,3-diethylurea] |
| 1.7 nM | 1.1 nM and 0.5 nM | 535 | CCN(CCOc1nc(N)nc(-c2ccc(F)cc2)c1-c1cc(C)nc(C(F)F)c1)C(=O)NC [Example 124, 1-(2-((2-amino-5-(2-(difluoromethyl)-6-methylpyridin-4-yl)-6-(4-fluorophenyl)pyrimidin-4-yl)oxy)ethyl)-1-ethyl-3-methylurea] |
| 92 nM | 40 nM |  | CCc1nn[nH]c1COc1nc(N)nc(-c2ccc(F)cc2)c1-c1cc(C)nc(C(F)F)c1 [Example 137, 5-(2-(difluoromethyl)-6-methylpyridin-4-yl)-4-((4-ethyl-1H-1,2,3-triazol-5-yl)methoxy)-6-(4-fluorophenyl)pyrimidin-2-amine] |
| 11.7 nM | 8.1 nM |  | CNC(=O)OCCOc1nc(N)nc(-c2ccc(F)cc2)c1-c1cc(C)nc(C(F)F)c1 [Example 143, 2-((2-amino-5-(2-(difluoromethyl)-6-methylpyridin-4-yl)-6-(4-fluorophenyl)pyrimidin-4-yl)oxy)ethyl methylcarbamate] |
| 13 nM |  | 5460 | Cc1cc(-c2c(OCCN(C)c3nccc(N)n3)nc(N)nc2-c2ccc(F)cc2)cc(C(F)F)n1 [Example 147, N^2-(2-((2-amino-5-(2-(difluoromethyl)-6-methylpyridin-4-yl)-6-(4-fluorophenyl)pyrimidin-4-yl)oxy)ethyl)-N^2-methylpyrimidine-2,4-diamine] |
| 627 nM | 231 nM |  | COC(=O)NCC1(COc2nc(N)nc(-c3ccc(F)cc3)c2-c2cc(C)nc(C(F)F)c2)CCOCC1 [Example 158, methyl ((4-(((2-amino-5-(2-(difluoromethyl)-6-methylpyridin-4-yl)-6-(4-fluorophenyl)pyrimidin-4-yl)oxy)methyl)tetrahydro-2H-pyran-4-yl)methyl)carbamate] |
| 336 nM | 184 nM |  | Cc1cc(-c2c(OCC(=O)NCC3CCOCC3)nc(N)nc2-c2ccc(F)cc2)cc(C(F)F)n1 [Example 160, 2-((2-amino-5-(2-(difluoromethyl)-6-methylpyridin-4-yl)-6-(4-fluorophenyl)pyrimidin-4-yl)oxy)-N-((tetrahydro-2H-pyran-4-yl)methyl)acetamide] |
